Where a SMILES comes first, the peptide text is derived from it.

The target of series [1] is T1, N-His Ich-1 (Homo sapiens, UniProt P42575).
T1 construct: contains Ich-1 amino acid residues 167-435, with an initiator and polyhistidine tag fused to the amino terminus; initiator (Met) + polyhistidine tag (N); made in house
T1 sequence (P42575 184-333): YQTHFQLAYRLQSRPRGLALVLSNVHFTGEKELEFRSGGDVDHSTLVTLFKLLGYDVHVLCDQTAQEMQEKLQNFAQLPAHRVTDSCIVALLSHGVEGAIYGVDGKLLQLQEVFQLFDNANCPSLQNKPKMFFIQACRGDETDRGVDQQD
T1 sequence (P42575 334-452): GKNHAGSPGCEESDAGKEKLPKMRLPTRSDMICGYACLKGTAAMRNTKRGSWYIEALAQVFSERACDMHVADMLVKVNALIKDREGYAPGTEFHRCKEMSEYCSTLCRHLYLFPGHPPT
In words: In vitro proteolysis assay with chromogenic para-nitroaniline-labeled peptide substrate (absorbance 405 nm). It counts as biochemical. From the text: To identify peptide substrates for Ich-1, candidate peptides were used in in vitro proteolysis assays with recombinant Ich-1 protein. Human Ich-1 enzyme (the nucleotide and amino acid sequences for which are disclosed in Wang, L., et al. (1994) Cell 78:739-750) was expressed recombinantly with an N-terminal polyhistidine tag by methods described in Kamens, J., et al. (1995) J. Biol. Chem. 270:15250-15256. The resulting enzyme, called N-His Ich-1, contains Ich-1 amino acid residues 167-435, with an initiator and polyhistidine tag fused to the amino terminus. […]
A peptidic aldehyde inhibitor of Ich-1 was designed based upon the optimal peptide substrate (Peptide 43) described in Example 3. […] The ability of this peptidic aldehyde inhibitor to inhibit N-His Ich-1 activity was determined in in vitro proteolysis assays using a chromogenic para-nitroaniline-labeled peptide substrate. […]
To perform the proteolysis assay, N-His Ich-1 was preincubated for 30 minutes at 30° C. in 160 μl of a reaction buffer containing 100 mM sodium acetate (pH 6.2), 20% (v/v) glycerol, 5 mM DTT, 0.5 mM EDTA, […]. […] The incubation of N-His Ich-1 with the peptide substrate at 30° C. was continued, and the catalytic hydrolysis of peptide substrate was monitored by the change in absorbance of the samples at 405 nm due to release of pNA as a function of time. […]

For series [2], the system named is N-His Ich-1. Briefly: reaction buffer containing 100 mM sodium acetate (pH 6.2), 20% (v/v) glycerol, 5 mM DTT, 0.5 mM EDTA, at pH 7.5. The note with it: Human, 30° C.

For `CC(=O)N[C@H](C(=O)N[C@@H](CC(=O)O)C(=O)N[C@H](C(=O)N[C@@H](C)C(=O)N[C@H](C=O)CC(=O)O)C(C)C)C(C)C` [Ac-VDVAD-CHO, acetyl-Val-Asp-Val-Ala-Asp-CHO] (Ac-VDVAD-aldehyde), in series [1] (500 μM pNA substrate, inhibitor 0.1 nM to 10 μM, sigmoidal fit), 8 nM corresponded to half-maximal inhibition (IC50). Also, the Ki in series [1] (calculated from IC50, [S] and Km, read-out: apparent Ki) was 2.5 nM.
“acetyl-Val-Asp-Val-Ala-Asp-para-nitroaniline”: the cleaved bond entry in series [2] is “Asp-pNA”.

These data come from patent US6288037A (BASF Aktiengesellschaft, priority 1996, dated 2001).
